Laboratory results published in patent US10155743B2, “Glutarimide derivatives, use thereof, pharmaceutical composition based thereon and methods for producing glutarimide derivatives” (OBSCHESTVO S OGRANICHENNOI OTVETSTVENNOSTIYU …, priority 2013, dated 2018).
Read-outs that look alike come from different tables or passages of the source.

What was measured:
[1] = system: mucous membrane of nasal passages, formalin-induced acute rhinosinusitis; experiment: Acute rhinosinusitis rat model (induced by intranasal 7.5% formalin solution); type: in vivo, Wistar rats; settings: rats; for Macroscopic changes in the mucous membrane of nasal passages: Muculent or mucopurulent catarrh (number of animals) / Macroscopic changes in the mucous membrane of nasal passages: Without changes (number of animals): count out of n of the group; for The number of caliciform cells within 1 mm of the mucous membrane of the nasal septum: M ± m
Procedure: Morphological studies of histologic preparations were conducted with a Leica DMLS light-optical microscope (Leica Microsystems, Germany). Micro-morphometric assessment was performed by using an ocular micrometer on a Leica DMLB microscope.
Acute rhinosinusitis was induced by intranasal administration of 20 μl of 7.5% formalin solution (aqueous solution comprising 40% formaldehyde, 8% methyl alcohol, and 52% water) to each nasal passage of rats.
Administration of formalin to rat nasal passages leads to the dissemination of inflammation to adjacent tissues, resulting in a clinical pattern similar to the symptoms of rhinosinusitis in a human.
After an acclimatization period, the following groups were formed: • intact animals administered intragastrically a saline solution in an amount of 0.2 ml, the induction of acute rhinosinusitis was not performed; • a control group consisted of the animals administered intragastrically a saline solution in an amount of 0.2 ml for 7 days after induction of acute rhinosinusitis; • animals administered intramuscularly dexamethasone at a dose of 0.33 mg/kg for 7 days after induction of acute rhinosinusitis; and • animals administered the tested compounds at a dose of 27 mg/kg for 7 days after induction of acute rhinosinusitis.
Clinical observation of each animal was performed every day at least twice daily.
In the experiment with Wistar rats, the induction of acute rhinosinusitis by administration of a 7.5% formalin solution to nasal passages caused in the control group of animals pronounced pathological changes characterizing the development of an acute inflammation process in the nasal mucous. The caused pathology was characterized by congestion, hyperplasia, focal necrosis of the nasal meatus mucous membrane, an increased number of caliciform cells, pronounced infiltration by mononuclear cells and leucocytes, and mucus hyperproduction by submucosal glands.
The mucous and submucous membranes of both nasal passages (respiratory and olfactory regions) of the experimental animals were subjected to a morphological analysis to evaluate a specific activity of the compounds.
For microscopic examination, the sections were stained with hematoxylin and eosin. Detection of acid mukopolysaccharides, the production of which is increased in an inflammation, was performed by histochemical staining of the preparation with Alcian Blue (pH 2.5). The comparison and histological evaluation of changes were performed versus the group of intact rats.
After slaughter, the gross appearance of inflammation in the nasal passages was studied in each animal. Histological, hystochemical and morphological studies of rats were intended to evaluate the following characteristics of nasal passages: congestion of the mucous membrane; hyperplasia and necrosis of nasal epithelium, the number of caliciform cells within 1 mm of the mucous membrane of the nasal septum, and the character of inflammation.
In this study, the efficiency of the mucociliary system was evaluated by the number of caliciform cells and, as a consequence, microscopic changes in the mucous membrane of the nasal passages.

[2] = system: Coxsackie A2-virus (strain HCXV A2); experiment: Antiviral activity against Coxsackie virus in vivo (mortality of infected mice); set-up: species or system white mice; settings: for inhibition in vivo at 30 mg/kg / mortality at 30 mg/kg: Mus musculus, po; for inhibition in vivo at 30 mg/kg: 168 h, read-out: Protective index (%); for mortality at 30 mg/kg: 360 h, read-out: Total mortality rate, %; for Average expectancy life (days), Vs. control: difference to virus control
[3] = tested compounds 27 mg/kg for 7 days
[4] = mice, 10LD50 HCXV A2, 30 mg/kg orally once daily for 7 days
[5] = mice, 10LD50 HCXV A2 i.m., 30 mg/kg orally once daily for 7 days from 24 h after infection, 15 days monitoring
[6] = tested compounds 27 mg/kg for 7 days after induction
[7] = dexamethasone 0.33 mg/kg intramuscularly for 7 days

| Structure (SMILES) | Macroscopic changes in the mucous membrane of nasal passages: Muculent or mucopurulent catarrh (number of animals) [1, 3] | Macroscopic changes in the mucous membrane of nasal passages: Without changes (number of animals) [1, 3] | inhibition in vivo at 30 mg/kg [2, 4] [%] | mortality at 30 mg/kg [2, 5] [%] | Average expectancy life (days), Relative [2, 4] [days] | Average expectancy life (days), Vs. control [2, 4] | other results |
| --- | --- | --- | --- | --- | --- | --- | --- |
| CC1CC(=O)N(CCc2cnc[nH]2)C(=O)C1 [Compound 2] | 3 | 5 | 40 | 42.9 | 22.4 | +9.5 days | – |
| O=C1CCCC(=O)N1CCc1nc2ccccc2s1 [Compound 7, 1-[2-(1H-benzothiazol-2-yl)ethyl]piperidine-2-dione] | 13 | 5 | – | – | – | – | – |
| O=C1CCCC(=O)N1CCc1ncc[nH]1 [Compound 8] | 3 | 3 | – | – | – | – | The number of caliciform cells within 1 mm of the mucous membrane of the nasal septum [1, 6]: 34.5 ± 0.8 |
| O=C1CCCC(=O)N1CCc1ccccn1 [Compound 13] | – | – | 36 | 46.7 | 19.0 | +8.3 days | – |
| O=C1CCCC(=O)N1CCN1CCCCC1 [Compound 14] | – | – | – | – | 21.4 | +10.4 days | inhibition in vivo at 30 mg/kg [2]: 36%; mortality at 30 mg/kg [2]: 50% |
| COC(=O)C(Cc1c[nH]c2ccccc12)N1C(=O)CCCC1=O (stereo not shown) [Compound 21] | 5 | 3 | – | – | – | – | – |
| CCOC(=O)C(Cc1c[nH]c2ccccc12)N1C(=O)CCCC1=O (stereo not shown) [Compound 27] | 4 | 4 | – | – | – | – | – |
| O=C1CC(O)CC(=O)N1CCc1cnc[nH]1 [Compound 28] | 4 | 4 | – | – | – | – | – |
| O=C1CCC(O)C(=O)N1CCc1cnc[nH]1 (stereo not shown) [Compound 29] | – | – | 50 | 35.7 | 26.7 | +13.7 days | – |
| CC(Cc1cnc[nH]1)N1C(=O)CCCC1=O (stereo not shown) [Compound 32] | 5 | 3 | 33 | 42.9 | 22.2 | +10.0 days | – |
| O=C1CCCC(=O)N1CCCc1c[nH]cn1 [Compound 33] | 5 | 3 | – | – | – | – | – |
| O=C(O)C(Cc1ccoc1)N1C(=O)CCCC1=O (stereo not shown) [Compound 44] | 4 | 4 | 55 | 28.6 | 32.3 | +20.1 days | – |
| CC1CCC(=O)N(CCc2c[nH]cn2)C1=O (stereo not shown) [Compound 56] | 3 | 5 | – | – | – | – | – |
| NC1CC(=O)N(CCc2c[nH]cn2)C(=O)C1 [Compound 65] | 4 | 4 | – | – | – | – | – |
| NC1CCC(=O)N(CCc2cnc[nH]2)C1=O (stereo not shown) [Compound 67] | – | – | 50 | 35.7 | 27.0 | +16.2 days | – |
| CC1CCC(=O)N(C(Cc2cnc[nH]2)C(=O)O)C1=O (stereo not shown) [Compound 70] | 4 | 4 | – | – | – | – | – |
| CC1CC(=O)N(C(Cc2cnc[nH]2)C(=O)O)C(=O)C1 (stereo not shown) [Compound 71] | – | – | 44 | 35.7 | 28.6 | +16.4 days | – |
| NC1CCC(=O)N(C(Cc2c[nH]cn2)C(=O)O)C1=O (stereo not shown) [Compound 75] | 5 | 3 | 50 | 35.7 | 27.3 | +14.3 days | – |
| O=C(O)C(Cc1cnc[nH]1)N1C(=O)CCC(O)C1=O (stereo not shown) [Compound 76] | 6 | 2 | – | – | – | – | – |
| O=C1CCCC(=O)N1CCC1CNCCO1 (stereo not shown) [Compound 89] | – | – | 27 | 53.3 | 17.7 | +7.0 days | – |
| O=C1CCCC(=O)N1CCC1COCCN1 (stereo not shown) [Compound 90] | – | – | 50 | 35.7 | 25.9 | +15.1 days | – |
| O=C1CCCC(=O)N1CCc1nc2ccccc2[nH]1 [Compound 124] | 8 | 4 | – | – | – | – | The number of caliciform cells within 1 mm of the mucous membrane of the nasal septum [1, 6]: 37.6 ± 1.4 |
| C[C@@H]1C[C@H]2[C@@H]3CCC4=CC(=O)C=C[C@]4(C)[C@@]3(F)[C@@H](O)C[C@]2(C)[C@@]1(O)C(=O)CO [Dexamethasone, dexamethasone, reference compound] | – | – | – | – | – | – | The number of caliciform cells within 1 mm of the mucous membrane of the nasal septum ([1]; dexamethasone 0.33 mg/kg intramuscularly for 7 days after induction): 34.8 ± 2.1; Macroscopic changes in the mucous membrane of nasal passages: Muculent or mucopurulent catarrh (number of animals) [1, 7]: 3; Macroscopic changes in the mucous membrane of nasal passages: Without changes (number of animals) [1, 7]: 3 |
